Data as given in ChEMBL document CHEMBL5154871, “Non-peptidyl non-covalent cathepsin C inhibitoEEr bearing a unique thiophene-substituted pyridine: Design, structure-activity relationship and anti-inflammatory activity in vivo” (Eur J Med Chem, 2022).
Calls of active or inactive are those of the source. The calls are words filed in the database; no cut-off is given here.

Key:
[1] = target: Cathepsin B (Homo sapiens, UniProt P07858); test: Inhibition of human recombinant Cathepsin B using Z-Leu-Arg-AMC as substrate pretreated for 60 mins followed by substrate addition and incubated for 30 mins by microplate reader assay
[2] = target: Dipeptidyl peptidase 1 (Homo sapiens, UniProt P53634); test: Binding affinity to Cathepsin C in human U-937 cells assessed as increase in thermal stability at 10 uM measured from 46 to 52 degC after 4 hrs by cellular thermal shift assay; type: cell-based
[3] = Half life in Sprague-Dawley rat at 2 mg/kg, iv measured for 24 hrs by LC-MS/MS analysis; type: ADME, organism-based; details: in vivo
[4] = Oral bioavailability in Sprague-Dawley rat at 10 mg/kg measured after 24 hrs by LC-MS/MS analysis; type: ADME, organism-based; details: in vivo
[5] = Tmax in Sprague-Dawley rat at 10 mg/kg, po measured after 24 hrs by LC-MS/MS analysis; type: ADME, organism-based; details: in vivo
[6] = MRT in Sprague-Dawley rat at 2 mg/kg, iv measured after 24 hrs by LC-MS/MS analysis; type: ADME, organism-based; details: in vivo
[7] = Cmax in Sprague-Dawley rat at 10 mg/kg, po measured after 24 hrs by LC-MS/MS analysis; type: ADME, organism-based; set-up: dose 10 mg/kg, time 24 hrs, route po; details: in vivo
[8] = AUC(last) in Sprague-Dawley rat at 2 mg/kg, iv measured after 24 hrs by LC-MS/MS analysis; type: ADME, organism-based; set-up: dose 2 mg/kg, time 24 hrs, route iv; details: in vivo
[9] = target: T1, Dipeptidyl peptidase 1 (Mus musculus) (UniProt P97821); test: Inhibition of Cathepsin C in C57BL/6 mouse Bone marrow cells assessed as reduction of NSPs stability by measuring stability of neutrophil elastase at 1 uM treated for 6 hrs by Western blotting analysis; type: cell-based; set-up: scale not given: the % may be the effect or the level left; details: Bone marrow cell
T1 sequence (whole entry): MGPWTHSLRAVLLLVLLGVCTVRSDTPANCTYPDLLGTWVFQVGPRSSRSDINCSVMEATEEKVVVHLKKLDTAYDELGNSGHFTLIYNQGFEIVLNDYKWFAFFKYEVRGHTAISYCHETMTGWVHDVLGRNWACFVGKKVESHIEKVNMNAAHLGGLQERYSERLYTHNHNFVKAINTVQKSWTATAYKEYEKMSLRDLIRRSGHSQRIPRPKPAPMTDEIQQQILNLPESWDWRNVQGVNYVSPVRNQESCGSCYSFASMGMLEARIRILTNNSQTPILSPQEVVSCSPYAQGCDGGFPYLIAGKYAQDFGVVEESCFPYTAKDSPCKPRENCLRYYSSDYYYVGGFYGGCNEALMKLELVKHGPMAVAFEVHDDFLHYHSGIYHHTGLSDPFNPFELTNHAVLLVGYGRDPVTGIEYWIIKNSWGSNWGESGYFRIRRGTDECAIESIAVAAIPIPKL

[10] = target: T1, Dipeptidyl peptidase 1 (Mus musculus); test: Inhibition of Cathepsin C in C57BL/6 mouse Bone marrow cells assessed as reduction of NSPs stability by measuring stability of Cat G at 1 uM treated for 6 hrs by Western blotting analysis; type: cell-based; set-up: scale not given: the % may be the effect or the level left; details: Bone marrow cell
[11] = target: T1, Dipeptidyl peptidase 1 (Mus musculus); test: Inhibition of Cathepsin C in C57BL/6 mouse Bone marrow cells assessed as reduction of NSPs stability by measuring stability of neutrophil elastase at 1 uM treated for 12 hrs by Western blotting analysis; type: cell-based; set-up: scale not given: the % may be the effect or the level left; details: Bone marrow cell
[12] = target: T1, Dipeptidyl peptidase 1 (Mus musculus); test: Inhibition of Cathepsin C in C57BL/6 mouse Bone marrow cells assessed as reduction of NSPs stability by measuring stability of protease 3 at 1 uM treated for 48 hrs by Western blotting analysis; type: cell-based; set-up: scale not given: the % may be the effect or the level left; details: Bone marrow cell
[13] = target: T1, Dipeptidyl peptidase 1 (Mus musculus); test: Inhibition of Cathepsin C in C57BL/6 mouse Bone marrow cells assessed as reduction of NSPs stability by measuring stability of cathepsin G at 1 uM treated for 48 hrs by Western blotting analysis; type: cell-based; set-up: scale not given: the % may be the effect or the level left; details: Bone marrow cell
[14] = tested on: Mus musculus; test: Anti-inflammatory activity against po dosed LPS-induced ALI C57BL/6 mouse model assessed as decrease in IL-6 level in serum treated 1 hr prior to LPS challenge and measured after 48 hrs by ELISA; type: functional, organism-based; details: dose 2-50 mg/kg, time 49.0 hrs, DDE = dose-dependent effect
[15] = tested on: Mus musculus; test: Anti-inflammatory activity against po dosed LPS-induced ALI C57BL/6 mouse model assessed as decrease in GM-CSF level in serum treated 1 hr prior to LPS challenge and measured after 48 hrs by ELISA; type: functional, organism-based; details: dose 2-50 mg/kg, time 49.0 hrs, DDE = dose-dependent effect
[16] = tested on: Mus musculus; test: Anti-inflammatory activity against po dosed LPS-induced ALI C57BL/6 mouse model assessed as decrease in histopatological changes of lungs treated 1 hr prior to LPS challenge and measured after 48 hrs by H and E staining based analysis; type: functional, organism-based; details: dose 2-50 mg/kg, time 49.0 hrs, DDE = dose-dependent effect
[17] = tested on: Mus musculus; test: Anti-inflammatory activity against LPS-induced ALI C57BL/6 mouse model assessed as increase in animal survival rate at 2 to 50 mg/kg, po treated 1 hr prior to LPS challenge and measured after 48 hrs; type: functional, organism-based; details: dose 2-50 mg/kg, time 49.0 hrs
[18] = tested on: Mus musculus; test: In vivo inhibition of cathepsin C in bone marrow of po dosed LPS-induced ALI C57BL/6 mouse model treated 1 hr prior to LPS challenge and measured after 48 hrs; type: functional, organism-based; details: dose 2-50 mg/kg, time 49.0 hrs, DDE = dose-dependent effect
[19] = tested on: Mus musculus; test: In vivo inhibition of cathepsin C in po dosed LPS-induced ALI C57BL/6 mouse model assessed as downregulation of PR3 activity in bone marrow treated 1 hr prior to LPS challenge and measured after 48 hrs; type: functional, organism-based; details: dose 2-50 mg/kg, time 49.0 hrs, DDE = dose-dependent effect
[20] = tested on: Mus musculus; test: In vivo inhibition of cathepsin C in po dosed LPS-induced ALI C57BL/6 mouse model assessed as downregulation of Cat G activity in bone marrow treated 1 hr prior to LPS challenge and measured after 48 hrs; type: functional, organism-based; details: dose 2-50 mg/kg, time 49.0 hrs, DDE = dose-dependent effect
[21] = tested on: Mus musculus; test: In vivo inhibition of cathepsin C in po dosed LPS-induced ALI C57BL/6 mouse model assessed as downregulation of PR3 activity in blood treated 1 hr prior to LPS challenge and measured after 48 hrs; type: functional, organism-based; details: dose 2-50 mg/kg, time 49.0 hrs, DDE = dose-dependent effect
[22] = tested on: Mus musculus; test: In vivo inhibition of cathepsin C in po dosed LPS-induced ALI C57BL/6 mouse model assessed as downregulation of neutrophil elastase activity in blood treated 1 hr prior to LPS challenge and measured after 48 hrs; type: functional, organism-based; details: dose 2-50 mg/kg, time 49.0 hrs, DDE = dose-dependent effect
[23] = tested on: Mus musculus; test: In vivo inhibition of cathepsin C in po dosed LPS-induced ALI C57BL/6 mouse model assessed as downregulation of Cat G activity in blood treated 1 hr prior to LPS challenge and measured after 48 hrs; type: functional, organism-based; details: dose 2-50 mg/kg, time 49.0 hrs, DDE = dose-dependent effect
[24] = tested on: Mus musculus; test: Anti-inflammatory activity against po dosed LPS-induced ALI C57BL/6 mouse model assessed as decrease in TNF-alpha level in lungs treated 1 hr prior to LPS challenge and measured after 48 hrs by ELISA; type: functional, organism-based; details: dose 2-50 mg/kg, time 49.0 hrs, DDE = dose-dependent effect
[25] = tested on: Mus musculus; test: Anti-inflammatory activity against po dosed LPS-induced ALI C57BL/6 mouse model assessed as increase in IL-10 level in lungs treated 1 hr prior to LPS challenge and measured after 48 hrs by ELISA; type: functional, organism-based; details: dose 2-50 mg/kg, time 49.0 hrs, DDE = dose-dependent effect

Dipeptidyl peptidase 1, sequence (P53634 25-134 limits assumed): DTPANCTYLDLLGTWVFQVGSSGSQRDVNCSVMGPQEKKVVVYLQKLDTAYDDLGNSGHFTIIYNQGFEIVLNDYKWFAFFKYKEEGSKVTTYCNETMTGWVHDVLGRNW
Dipeptidyl peptidase 1, sequence (P53634 231-394 limits assumed): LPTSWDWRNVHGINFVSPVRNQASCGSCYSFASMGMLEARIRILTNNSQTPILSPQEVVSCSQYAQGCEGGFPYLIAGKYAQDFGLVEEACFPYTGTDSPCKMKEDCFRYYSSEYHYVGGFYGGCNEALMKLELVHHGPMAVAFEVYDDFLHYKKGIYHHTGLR
Dipeptidyl peptidase 1, sequence (P53634 395-463 limits assumed): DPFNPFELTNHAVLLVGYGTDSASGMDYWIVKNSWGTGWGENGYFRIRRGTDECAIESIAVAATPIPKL

CC(=O)Nc1cccc(Nc2nc(Nc3ccc(-c4ccsc4)cn3)ncc2Cl)c1
IC50 [1]: > 5 µM
Activity [2]: Active
half-life [3]: 150 min
F [4]: 42.07%
Tmax [5]: 46.2 min
MRT [6]: 3.38 h
Cmax [7]: 177 ng/mL
AUC(0-t) at 24 h [8]: 1440 ng·h/mL
Activity [9]: 93.5%
Activity [10]: 93.4%
Activity [11]: 68.3%
Activity [12]: 46.8%
Activity [13]: 50.1%
Activity [14]: Dde
Activity [15]: Dde
Activity [16]: Dde
Activity [17]: Active
inhibition [18]: Dde
inhibition [19]: Dde
inhibition [20]: Dde
inhibition [21]: Dde
inhibition [22]: Dde
inhibition [23]: Dde
Activity [24]: Dde
Activity [25]: Dde
